Earlier results on three molecules are cited in patent US10324098B2, “T2R taste receptors and genes encoding same” (SENOMYX, INC., priority 2000, dated 2019).

Molecules are shown by their SMILES.

One data set concerns the target T1, human T2R4 (Homo sapiens, UniProt Q9NYW5).
T1 sequence (Q9NYW5 1-299): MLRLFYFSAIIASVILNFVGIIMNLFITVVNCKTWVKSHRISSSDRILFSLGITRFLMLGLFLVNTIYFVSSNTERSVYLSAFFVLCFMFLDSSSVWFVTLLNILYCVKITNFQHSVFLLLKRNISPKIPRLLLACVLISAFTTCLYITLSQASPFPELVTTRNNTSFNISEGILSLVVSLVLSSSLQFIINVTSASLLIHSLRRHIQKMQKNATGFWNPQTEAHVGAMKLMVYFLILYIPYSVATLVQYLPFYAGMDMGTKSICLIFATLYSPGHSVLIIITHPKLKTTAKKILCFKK

The next data set has as its target T2, mouse T2R8 (Mus musculus, UniProt Q9JKT3).
T2 sequence (Q9JKT3 1-297): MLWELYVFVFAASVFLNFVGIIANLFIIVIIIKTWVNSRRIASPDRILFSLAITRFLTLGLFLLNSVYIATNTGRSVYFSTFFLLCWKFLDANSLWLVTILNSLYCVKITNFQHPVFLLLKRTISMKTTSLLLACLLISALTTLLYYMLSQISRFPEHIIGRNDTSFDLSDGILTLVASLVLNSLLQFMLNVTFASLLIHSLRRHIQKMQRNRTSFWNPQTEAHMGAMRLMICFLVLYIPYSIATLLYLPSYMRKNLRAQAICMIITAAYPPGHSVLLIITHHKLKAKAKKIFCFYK

In data set [1] the target is T3, mouse T2R5 (Mus musculus, UniProt Q9JKT4).
T3 sequence (Q9JKT4 1-300): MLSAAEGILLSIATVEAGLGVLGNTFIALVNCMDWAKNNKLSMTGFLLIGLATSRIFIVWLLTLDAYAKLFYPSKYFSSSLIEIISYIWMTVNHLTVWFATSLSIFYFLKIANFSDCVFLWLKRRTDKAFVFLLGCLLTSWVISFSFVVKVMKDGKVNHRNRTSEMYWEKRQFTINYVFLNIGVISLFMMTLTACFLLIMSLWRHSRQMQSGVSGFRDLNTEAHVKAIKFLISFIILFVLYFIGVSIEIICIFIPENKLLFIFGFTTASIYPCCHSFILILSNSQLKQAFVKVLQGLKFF

Data set [2] concerns the target T3, mouse T2R5. Particulars: mouse T2R5, G Protein gustducin.

`CCCc1cc(=O)[nH]c(=S)[nH]1` [PROP, 6-n-propylthiouracil]: the “receptor responsive to tastant” value on human T2R4 and on mouse T2R8 was “specifically responsive” in each case.
With `C[C@@H]1C[C@@H]([C@H](O)CC2CC(=O)NC(=O)C2)C(=O)[C@@H](C)C1` [cycloheximide], the “receptor receptive to tastant” value at mouse T2R5 [1] was “specifically receptive”. For the same molecule, the “ligand dependent coupling with gustducin” value at mouse T2R5 [2] is on record as “strong cycloheximide dependent coupling with gustducin”.
`CC[N+](CC)(CC(=O)Nc1c(C)cccc1C)Cc1ccccc1` [denatonium]: the “receptor responsive to tastant” value at human T2R4 and on mouse T2R8 was “specifically responsive” each time.
